Measured values reported in US10370387B2, “Tricyclic fused thiophene derivatives as JAK inhibitors” (Incyte Corporation, priority 2012, dated 2019).

tested on: human JAK1; assay: In vitro JAK kinase assay (HTRF, phosphorylation of biotinylated peptide), JAK1; assay type: biochemical; conditions: ratio of JAK2 IC50 to JAK1 IC50, 1 mM ATP
Protocol: Compounds herein were tested for inhibitory activity of JAK targets according to the following in vitro assay described in Park et al., Analytical Biochemistry 1999, 269, 94-104. The catalytic domains of human JAK1 (a.a. 837-1142), JAK2 (a.a. 828-1132) and JAK3 (a.a. 781-1124) were expressed using baculovirus in insect cells and purified. The catalytic activity of JAK1, JAK2 or JAK3 was assayed by measuring the phosphorylation of a biotinylated peptide. The phosphorylated peptide was detected by homogenous time resolved fluorescence (HTRF). IC50s of compounds were measured for each kinase in the 40 μL reactions that contain the enzyme, ATP and 500 nM peptide in 50 mM Tris (pH 7.8) buffer with 100 mM NaCl, 5 mM DTT, and 0.1 mg/mL (0.01%) BSA. For the 1 mM IC50 measurements, ATP concentration in the reactions was 1 mM. Reactions were carried out at room temperature for 1 hour and then stopped with 20 μL 45 mM EDTA, 300 nM SA-APC, 6 nM Eu-Py20 in assay buffer (Perkin Elmer, Boston, Mass.). Binding to the Europium labeled antibody took place for 40 minutes and HTRF signal was measured on a PHERA star plate reader (BMG, Cary, N.C.). The Example compounds were each tested in the Example A assay (see Table 1 for data for the compounds of the examples as tested by the assay of Example A at 1 mM ATP).

With C[C@@H](O)c1nc2cnc3ccsc3c2n1[C@H]1CCN(CCC#N)C1 [Example 62, 3-((3S)-3-{2-[(1R)-1-Hydroxyethyl]-1H-imidazo[4,5-d]thieno[3,2-b]pyridin-1-yl}pyrrolidin-1-yl)propanenitrile] as the compound, how does the JAK2/JAK1 read?
The JAK2/JAK1 was greater than 10.

For C[C@@H](O)c1nc2cnc3ccsc3c2n1C1CCN(CCC#N)CC1 [Example 16, 3-(4-{2-[(1R)-1-Hydroxyethyl]-1H-imidazo[4,5-d]thieno[3,2-b]pyridin-1-yl}piperidin-1-yl)propanenitrile], which JAK2/JAK1 is on record?
The JAK2/JAK1 was greater than 10.

Which JAK2/JAK1 does the source give for C[C@@H](O)c1nc2cnc3ccsc3c2n1C1CCC(O)(CC#N)CC1 (single isomer, unassigned) [24 (first peak)] here?
The JAK2/JAK1 was greater than 10.

“((1R,2R,4S)-2-Hydroxy-4-{2-[(1R)-1-hydroxyethyl]-1H-imidazo[4,5-d]thieno[3,2-b]pyridin-1-yl}cyclohexyl)acetonitrile and ((1S,2S,4R)-2-hydroxy-4-{2-[(1R)-1-hydroxyethyl]-1H-imidazo[4,5-d]thieno[3,2-b]pyridin-1-yl}cyclohexyl)acetonitrile [36 (second peak)]” was tested. Which JAK2/JAK1 did it give?
Its JAK2/JAK1 is greater than 10.

For N#CC[C@H]1CC[C@H](n2c(CO)nc3cnc4ccsc4c32)CC1 [Example 17, {trans-4-[2-(Hydroxymethyl)-1H-imidazo[4,5-d]thieno[3,2-b]pyridin-1-yl]cyclohexyl}acetonitrile], which JAK2/JAK1 is on record?
Its JAK2/JAK1 is greater than 10.

For COC(=O)NC[C@H]1CC[C@H](n2c(CC#N)nc3cnc4ccsc4c32)CC1 [Example 86, Methyl ({trans-4-[2-(cyanomethyl)-1H-imidazo[4,5-d]thieno[3,2-b]pyridin-1-yl]cyclohexyl}methyl)carbamate], which JAK2/JAK1 is on record?
The JAK2/JAK1 was greater than 10.

Which JAK2/JAK1 does the source give for C[C@@H](O)c1nc2cnc3ccsc3c2n1[C@H]1CC[C@H](CNC(=O)N(C)C)CC1 [Example 81, N′-[(trans-4-{2-[(1R)-1-Hydroxyethyl]-1H-imidazo[4,5-d]thieno[3,2-b]pyridin-1-yl}cyclohexyl)methyl]-N,N-dimethylurea] here?
Its JAK2/JAK1 is greater than 10.

For N#CC[C@H]1CC[C@H](n2c(C3CC3)nc3cnc4ccsc4c32)CO1 [Example 43, [(2R,5S)-5-(2-Cyclopropyl-1H-imidazo[4,5-d]thieno[3,2-b]pyridin-1-yl)tetrahydro-2H-pyran-2-yl]acetonitrile], which JAK2/JAK1 is on record?
Its JAK2/JAK1 is greater than 10.

Which JAK2/JAK1 does the source give for “[(1R,2S,4S)-4-(2-Ethyl-1H-imidazo[4,5-d]thieno[3,2-b]pyridin-1-yl)-2-hydroxycyclohexyl]acetonitrile and [(1S,2R,4R)-4-(2-ethyl-1H-imidazo[4,5-d]thieno[3,2-b]pyridin-1-yl)-2-hydroxycyclohexyl]acetonitrile [40 (first peak)]” here?
The JAK2/JAK1 was greater than 10.

For CC(CC(=O)N1CCC[C@H](n2c([C@@H](C)O)nc3cnc4ccsc4c32)C1)c1ccccc1 (stereo partly drawn) [Example 55, (1R)-1-{1-[(3S)-1-(3-Phenylbutanoyl)piperidin-3-yl]-1H-imidazo[4,5-d]thieno[3,2-b]pyridin-2-yl}ethanol], which JAK2/JAK1 is on record?
The JAK2/JAK1 was greater than 10.

N#CCc1nc2cnc3ccsc3c2n1[C@H]1CC[C@H](CC#N)OC1 [Example 73, {(2R,5S)-5-[2-(Cyanomethyl)-1H-imidazo[4,5-d]thieno[3,2-b]pyridin-1-yl]tetrahydro-2H-pyran-2-yl}acetonitrile] was tested. Which JAK2/JAK1 did it give?
Its JAK2/JAK1 is greater than 10.

For C[C@@H](O)c1nc2cnc3ccsc3c2n1[C@H]1CCC(CO)OC1 (stereo partly drawn) [Example 19, (1R)-1-{1-[(3S)-6-(Hydroxymethyl)tetrahydro-2H-pyran-3-yl]-1H-imidazo[4,5-d]thieno[3,2-b]pyridin-2-yl}ethanol], which JAK2/JAK1 is on record?
Its JAK2/JAK1 is greater than 10.

C[C@@H](O)c1nc2cnc3ccsc3c2n1[C@H]1CC[C@@H](CC#N)C1.O=C(O)C(F)(F)F [Example 49, ((1R,3S)-3-{2-[(1R)-1-Hydroxyethyl]-1H-imidazo[4,5-d]thieno[3,2-b]pyridin-1-yl}cyclopentyl)acetonitrile trifluoroacetate] was tested. Which JAK2/JAK1 did it give?
The JAK2/JAK1 was greater than 10.

C[C@@H](O)c1nc2cnc3ccsc3c2n1[C@H]1CCCN(CCC#N)C1 [Example 56, 3-((3S)-3-{2-[(1R)-1-Hydroxyethyl]-1H-imidazo[4,5-d]thieno[3,2-b]pyridin-1-yl}piperidin-1-yl)propanenitrile] was tested. Which JAK2/JAK1 did it give?
The JAK2/JAK1 was greater than 10.

C[C@@H](O)c1nc2cnc3ccsc3c2n1[C@H]1CC[C@H](CCS(C)(=O)=O)CC1 [Example 5, (1R)-1-(1-{trans-4-[2-(Methylsulfonyl)ethyl]cyclohexyl}-1H-imidazo[4,5-d]thieno[3,2-b]pyridin-2-yl)ethanol] was tested. Which JAK2/JAK1 did it give?
The JAK2/JAK1 was greater than 10.

N#CC[C@H]1CC[C@H](n2/c(=N/C#N)[nH]c3cnc4ccsc4c32)CC1.O=C(O)C(F)(F)F [Example 25, {(2E)-1-[trans-4-(Cyanomethyl)cyclohexyl]-1,3-dihydro-2H-imidazo[4,5-d]thieno[3,2-b]pyridin-2-ylidene}cyanamide trifluoroacetate] was tested. Which JAK2/JAK1 did it give?
The JAK2/JAK1 was greater than 6.

For C[C@@H](O)c1nc2cnc3ccsc3c2n1C1CCN(CC#N)CC1.O=C(O)C(F)(F)F [Example 61, (4-{2-[(1R)-1-Hydroxyethyl]-1H-imidazo[4,5-d]thieno[3,2-b]pyridin-1-yl}piperidin-1-yl)acetonitrile trifluoroacetate], which JAK2/JAK1 is on record?
The JAK2/JAK1 was greater than 10.

CS(=O)(=O)NCc1nc2cnc3ccsc3c2n1[C@H]1CC2CCC1C2 (stereo partly drawn) [Example 22, N-((1-((2S)-Bicyclo[2.2.1]heptan-2-yl)-1H-imidazo[4,5-d]thieno[3,2-b]pyridin-2-yl)methyl)methanesulfonamide] was tested. Which JAK2/JAK1 did it give?
Its JAK2/JAK1 is greater than 4.

Which JAK2/JAK1 does the source give for C[C@@H](O)c1nc2cnc3ccsc3c2n1[C@H]1CC[C@@H](n2cncn2)CC1 [Example 6, (1R)-1-{1-[cis-4-(1H-1,2,4-Triazol-1-yl)cyclohexyl]-1H-imidazo[4,5-d]thieno[3,2-b]pyridin-2-yl}ethanol] here?
Its JAK2/JAK1 is greater than 6.

For C[C@@H](O)c1nc2cnc3ccsc3c2n1[C@H]1CCN(CCCC#N)C1 [Example 65, 4-((3S)-3-{2-[(1R)-1-Hydroxyethyl]-1H-imidazo[4,5-d]thieno[3,2-b]pyridin-1-yl}pyrrolidin-1-yl)butanenitrile], which JAK2/JAK1 is on record?
Its JAK2/JAK1 is greater than 10.

How did the JAK2/JAK1 turn out when C[C@@H](O)c1nc2cnc3ccsc3c2n1[C@H]1CC[C@H](O)CC1 [Example 3, trans-4-{2-[(1R)-1-Hydroxyethyl]-1H-imidazo[4,5-d]thieno[3,2-b]pyridin-1-yl}cyclohexanol] was run?
Its JAK2/JAK1 is greater than 10.

C[C@@H](O)c1nc2cnc3ccsc3c2n1[C@H]1CCCN(C(=O)CCC#N)C1 [Example 58, 4-((3S)-3-{2-[(1R)-1-Hydroxyethyl]-1H-imidazo[4,5-d]thieno[3,2-b]pyridin-1-yl}piperidin-1-yl)-4-oxobutanenitrile] was tested. Which JAK2/JAK1 did it give?
The JAK2/JAK1 was greater than 10.

With CCC(=O)NC[C@H]1CC[C@H](n2c(CC#N)nc3cnc4ccsc4c32)CC1 [Example 89, N-({trans-4-[2-(Cyanomethyl)-1H-imidazo[4,5-d]thieno[3,2-b]pyridin-1-yl]cyclohexyl}methyl)propanamide] as the compound, how does the JAK2/JAK1 read?
Its JAK2/JAK1 is greater than 10.

Which JAK2/JAK1 does the source give for C[C@@H](O)c1nc2cnc3ccsc3c2n1[C@H]1CCCOC1 [Example 1, (1R)-1-{1-[(3S)-Tetrahydro-2H-pyran-3-yl]-1H-imidazo[4,5-d]thieno[3,2-b]pyridin-2-yl}ethanol] here?
The JAK2/JAK1 was greater than 3.

With C[C@@H](O)c1nc2cnc3ccsc3c2n1[C@@H]1CC[C@@H](CC#N)OC1 [Example 44, ((2S,5R)-5-{2-[(1R)-1-Hydroxyethyl]-1H-imidazo[4,5-d]thieno[3,2-b]pyridin-1-yl}tetrahydro-2H-pyran-2-yl)acetonitrile] as the compound, how does the JAK2/JAK1 read?
Its JAK2/JAK1 is greater than 10.

How did the JAK2/JAK1 turn out when C[C@@H](O)c1nc2cnc3ccsc3c2n1[C@H]1CCCN(C(=O)CC#N)C1.O=C(O)C(F)(F)F [Example 51, 3-((3S)-3-{2-[(1R)-1-Hydroxyethyl]-1H-imidazo[4,5-d]thieno[3,2-b]pyridin-1-yl}piperidin-1-yl)-3-oxopropanenitrile trifluoroacetate] was run?
The JAK2/JAK1 was greater than 10.

Which JAK2/JAK1 does the source give for C[C@@H](O)c1nc2cnc3ccsc3c2n1C1CCC(NCCC#N)CC1 (single isomer, unassigned) [30 (second peak)] here?
Its JAK2/JAK1 is greater than 10.

CNC(C)c1nc2cnc3ccsc3c2n1[C@H]1CC[C@H](CC#N)OC1 (stereo partly drawn) [Example 70, ((2R,5S)-5-{2-[1-(Methylamino)ethyl]-1H-imidazo[4,5-d]thieno[3,2-b]pyridin-1-yl}tetrahydro-2H-pyran-2-yl)acetonitrile] was tested. Which JAK2/JAK1 did it give?
The JAK2/JAK1 was greater than 10.

For CCCOC(=O)NC[C@H]1CC[C@H](n2c([C@@H](C)O)nc3cnc4ccsc4c32)CC1 [Example 83, Propyl [(trans-4-{2-[(1R)-1-hydroxyethyl]-1H-imidazo[4,5-d]thieno[3,2-b]pyridin-1-yl}cyclohexyl)methyl]carbamate], which JAK2/JAK1 is on record?
The JAK2/JAK1 was greater than 10.

Which JAK2/JAK1 does the source give for C[C@@H](O)c1nc2cnc3ccsc3c2n1[C@H]1CCCN(C(=O)CCc2cccnc2)C1 [Example 54, (1R)-1-{1-[(3S)-1-(3-Pyridin-3-ylpropanoyl)piperidin-3-yl]-1H-imidazo[4,5-d]thieno[3,2-b]pyridin-2-yl}ethanol] here?
Its JAK2/JAK1 is greater than 10.

Which JAK2/JAK1 does the source give for N#CCC1CCC(CO)(n2cnc3cnc4ccsc4c32)CC1 (single isomer, unassigned) [72 (second peak), [4-(Hydroxymethyl)-4-(1H-imidazo[4,5-d]thieno[3,2-b]pyridin-1-yl)cyclohexyl]acetonitrile] here?
Its JAK2/JAK1 is greater than 5.

With C[C@@H](O)c1cc2cnc3ccsc3c2n1[C@H]1CC[C@H](CC#N)CC1 [Example 23, (trans-4-{7-[(1R)-1-Hydroxyethyl]-8H-pyrrolo[2,3-d]thieno[3,2-b]pyridin-8-yl}cyclohexyl)acetonitrile] as the compound, how does the JAK2/JAK1 read?
Its JAK2/JAK1 is greater than 10.
